From article PMC5013046, “A Sex Pheromone Receptor in the Hessian Fly Mayetiola destructor (Diptera, Cecidomyiidae)” (Frontiers in Cellular Neuroscience, 2016)

Molecular target: T1, MdesOR115 (with MdesOrco; HEK293/TMO/MdesOR115) (Mayetiola destructor, UniProt A0A1D8GZG1)
T1 construct: with Odorant receptor coreceptor
T1 sequence (A0A1D8GZG1 1-412): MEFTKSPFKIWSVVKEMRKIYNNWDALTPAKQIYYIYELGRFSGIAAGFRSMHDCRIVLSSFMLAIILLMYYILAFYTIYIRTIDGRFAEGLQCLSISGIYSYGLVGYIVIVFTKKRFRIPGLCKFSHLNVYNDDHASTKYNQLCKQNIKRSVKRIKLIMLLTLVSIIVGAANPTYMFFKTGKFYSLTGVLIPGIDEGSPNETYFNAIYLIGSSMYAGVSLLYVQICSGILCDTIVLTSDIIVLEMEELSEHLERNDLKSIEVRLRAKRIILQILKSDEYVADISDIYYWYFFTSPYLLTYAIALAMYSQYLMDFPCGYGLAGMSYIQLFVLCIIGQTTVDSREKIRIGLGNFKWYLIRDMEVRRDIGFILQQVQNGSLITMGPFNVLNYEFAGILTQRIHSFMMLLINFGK
T1 sequence (A0A1D8GZG0 1-466 partner): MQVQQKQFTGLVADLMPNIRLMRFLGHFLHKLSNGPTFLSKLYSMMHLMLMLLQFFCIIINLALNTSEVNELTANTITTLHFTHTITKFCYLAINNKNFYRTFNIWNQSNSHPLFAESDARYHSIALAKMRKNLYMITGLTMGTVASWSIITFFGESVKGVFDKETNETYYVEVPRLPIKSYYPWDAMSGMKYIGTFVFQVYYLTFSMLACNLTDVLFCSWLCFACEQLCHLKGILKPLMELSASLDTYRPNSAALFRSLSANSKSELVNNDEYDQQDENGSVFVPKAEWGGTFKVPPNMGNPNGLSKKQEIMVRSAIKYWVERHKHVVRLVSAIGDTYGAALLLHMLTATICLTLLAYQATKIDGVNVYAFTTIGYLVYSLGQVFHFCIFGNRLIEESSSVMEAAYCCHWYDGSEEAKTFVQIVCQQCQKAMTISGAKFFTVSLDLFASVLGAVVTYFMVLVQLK
Test: fluorescent calcium assay, HEK293 cells, dose-response
Format: cell-based

CC/C=C/C=C/CCCCC[C@H](C)OC(C)=O [2S-8E,10E-13:OAc, (2S,8E,10E)-8,10-tridecadien-2-yl acetate]
EC50: 2020 to 3690 nM
